Results: patent US20230321101A1, “METHODS AND USES OF HALOFUGINONE” (The Regents of the University of California, priority 2020, published 2023)
“And” between values parts separate entries of the source, which are not always exact repeats. Equal values may be shown once. “Also recorded” adds a separate entry of the source. Read-outs that look alike come from different tables or passages of the source.

Experiments:
ZIKV (Zika virus) = assay: ZIKV antiviral immunofluorescence assay in SH-SY5Y cells; format: cell-based; conditions: Zika virus, read-out: EC50 ZIKV
Experimental: Experimental Procedure. The antiviral activity of 8 dilutions of each compound was explored by adding the drug to the assay cells 2 h after infection with the different viruses. Virus and compounds were left on the cells for the entire duration of the experiment (28 h for Zika virus and 24 h for all other viruses). The cytotoxicity of the same range of concentrations of compounds was determined by LDH release assay in the same cell lines.
Cell plating. Cells were detached and counted following SOP-RA 003 and SOP-RA 004. Count was recorded in the Cell Count Logbook, Volume 1. For each virus four plates were seeded, two for the antiviral assay and two for the cytotoxicity assay. Cells were seeded in 100 μl/well of complete media at the following densities: • Huh7: 8,000 cells/well (Dengue) • SH-SY5Y: 10,000 cells/wells (Zika) • HeLa Tzmbl: 8,000 cells/well (HIV)
Compounds dilutions. The 22.1 mM stocks were further diluted to 1 mM in DMSO by adding 211 μl of DMSO to 10 μl of compound. Three serial dilutions were prepared in different media for different viruses/cells. For each dilution, drugs were prepared at twice the final concentration in 50 μl volume, because they are diluted to the final concentration by an equal volume of virus or media.
Infection. Cells were infected in 50 μl of supplemented media/well at the following multiplicity of infection (MOI): • DENV-2, MOI 1 • ZIKV, MOI 5 • HIV, MOI 0.5
After removing culture media from cells, 50 μl of virus dilution were added to all wells except Column 11 (uninfected control), where the same volume of supplemented media was added. […]
Infectivity readout. […] The primary antibodies were detected with an Alexa-488 conjugate secondary antibody (Life Technologies, A11001), and nuclei were stained with Hoechst. Images were acquired on a CellInsight CX5 high content platform (Thermo Scientific) using a 4× objective, and percentage infection calculated using CellInsight CX5 software (infected cells/total cells×100).
Determination of % Inhibition—IF assay. Normalized percentages of inhibition were calculated using the following formula: […]

[1] = test system: heparan sulfate of Hep3B cells; assay: HS content and disaccharide analysis by LC-MS in Hep3B cells; format: cell-based, human
[2] = test system: recombinant SARS-CoV-2 spike RBD protein binding to Calu-3 cells
Huh 7.5 cells = assay: Cell viability of Huh 7.5 cells, alamarBlue; format: cell-based, human; conditions: Huh 7.5, 24 hr
Experimental: FIG. 28. Cell viability in Huh 7.5 cells after treatment for 24 hours with Halofuginone. Cell viability was measured using alamarBlue staining in HuH 7.5 cells at indicated concentrations of halofuginone after a 24 hr treatment (n=3 per dose). Data shown as mean±S.D. Statistics performed by 1-way ANOVA (ns: p>0.05, *:p≤0.01).
Cell Culture. Huh-7.5 cells^1 were generously provided by Charles M. Rice (Rockefeller University, New York, NY). Hep3B, BHK-15 and Calu-3 cells were from ATCC and were grown in DMEM medium containing 10% % fetal bovine serum, and 100 IU/ml of penicillin, 100 μg/ml of streptomycin sulfate and nonessential amino acids. BHK-15 were grown in Modified Eagle's supplemented with 10% fetal bovine serum and nonessential amino acids (Gibco, #11140-050). Hep3B, A375 and Vero E6 cells were from ATCC. The Hep3B cells carrying mutations in HS biosynthetic enzymes was derived from the parent ATCC Hep3B stock, and have been described previously^2. All cells were supplemented with 10% FBS, 100 IU/ml of penicillin and 100 μg/ml of streptomycin sulfate and grown under an atmosphere of 5% CO2 and 95% air. Cells were passaged before 80% confluence was reached and seeded as explained for the individual assays. Cell viability was measured using LDH leakage (Promega) or alamarBleu (Thermo Fisher).

authentic SARS-CoV-2 [3] = format: cell-based
[4] = test system: primary human bronchial epithelial cells; conditions: 10 nM and 100 nM
clinical = conditions: human, in vivo, po
authentic SARS-CoV-2 [5] = format: cell-based; remark: listed apart in the source
Vero E6 cells = assay: Cell number of Vero E6 cells treated for 24 h; format: cell-based, African green monkey; conditions: Vero E6, 24 h
Experimental: FIG. 32A and FIG. 32B. […] A-B, Measurement of authentic SARS-CoV-2 infection and cell number in Vero E6 cells treated with (A) halofuginone (HF) or (B) the 2R,3S-(+) enantiomer for 24 h. Data shown as mean±S.D.

authentic SARS-CoV-2 [6] = format: cell-based; remark: listed apart in the source
SARS-CoV-2 spike RNA = assay: microbe, parasite or virus in culture; format: cell-based; conditions: Vero E6
[7] = mice, cited from earlier work

O=C(CC1NCCCC1O)Cn1cnc2cc(Br)c(Cl)cc2c1=O (racemic) [halofuginone]
EC50 (ZIKV (Zika virus)): 21.8 nM
disaccharide composition of HS [1]: No difference was seen in the disaccharide composition
reduction of cell surface HS ([1]; 0.5 μM): ~4 fold
effect on spike (RBD) protein binding [2]: dose-dependently inhibited spike protein binding
reduction in spike RBD binding [2]: 5 fold
effect on spike (RBD) protein binding ([2]; listed as Halofuginone): reduced spike RBD protein binding
cell viability (Huh 7.5 cells): without affecting cell viability
number of SARS-CoV-2 infected cells (authentic SARS-CoV-2 [3]; at both 10 nM and 100 nM): significantly reduced the number of SARS-CoV-2 infected cells
inhibition of SARS-CoV-2 (authentic SARS-CoV-2 [3]; different halofuginone doses): complete inhibition of SARS-CoV-2
cell viability [4]: without affecting cell viability
Cmax (clinical; 0.5 mg): ~1.3 nM
Cmax (clinical; 3.5 mg): ~7.4 nM
infectious SARS-CoV-2 in supernatants (plaque assay) (authentic SARS-CoV-2 [5]): No infectious SARS-CoV-2 could be detected; also recorded: No virus was detected
cell proliferation (cell number) (Vero E6 cells): inhibit SARS-CoV-2 infection and cell proliferation
decrease of viral RNA levels (authentic SARS-CoV-2 [6]): 10- to 100 fold
intracellular viral RNA (authentic SARS-CoV-2 [6]): did not change
reduction of SARS-CoV-2 infectivity (authentic SARS-CoV-2 [6]): 3 Log and 4 Log
reduction of secreted infectious virions (authentic SARS-CoV-2 [6]): ~1000 fold
virus in plaque assays (authentic SARS-CoV-2 [6]; HuH 7.5, doses above 100 nM): No virus was detected in plaque assays
productive infection (authentic SARS-CoV-2 [6]; Huh 7.5, 100 nM): prevented productive infection
reduction of SARS-CoV-2 infection (viral titers) (authentic SARS-CoV-2 [6]; Huh 7.5, 100 nM, pretreatment alone): ~30 fold
IC50 (SARS-CoV-2 spike RNA; Severe acute respiratory syndrome coronavirus 2, Vero C1008, read-out: IC50 of SARS-CoV-2 spike intracellular mRNA levels): 34.9 nM
reduction of SARS-CoV-2 spike intracellular mRNA levels (SARS-CoV-2 spike RNA): more than 20,000 fold
exposure (area under the curve) in the lung compared to plasma ([7]; single intravenous injection): more than 87 fold
tissue distribution [7]: highest tissue concentrations in the lung and kidney
